From patent US10913727B2, “Modulators of the integrated stress pathway” (Calico Life Sciences LLC, priority 2016, dated 2021) come the findings set out here.

Each structure is given as a SMILES string.

The test system of this test is HEK293T cells carrying the ATF4 luciferase reporter. The test can be described thus: ATF4-Luc assay, in vitro model of Vanishing Cell White Matter Disease (VWMD). It counts as cell-based. Particulars: Homo sapiens, HEK-293T, 1 μg/mL tunicamycin, 7 hours, One Glo luminescence. Put shortly:
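Compound at 200 nM and tunicamycin at 1 μg/mL were given together for 7 h to HEK293T cells stably transduced with an ATF4 5′-UTR-driven firefly luciferase reporter. Read-out by luminescence, reported as EC50.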
As usually defined, the EC50 is the concentration giving half of the maximal effect. As for `Cc1cc(C(=O)NC23CCC(NC(=O)COc4ccc(Cl)c(F)c4)(CC2)C(O)C3)on1` (centres unmarked) [Compound 326, N-{4-[2-(4-chloro-3-fluorophenoxy)acetamido]-3-hydroxybicyclo[2.2.2]octan-1-yl}-3-methyl-1,2-oxazole-5-carboxamide], the EC50 is 50 to 250 nM.

With `O=C(COc1ccc(C(F)F)c(F)c1)NC12CC(NC(=O)c3cnc(C(F)F)cn3)(C1)C2` [Compound 475, 5-(difluoromethyl)-N-(3-{2-[4-(difluoromethyl)-3-fluorophenoxy]acetamido}bicyclo[1.1.1]pentan-1-yl)pyrazine-2-carboxamide], the concentration for a half-maximal effect (EC50) was in the range of 50 to 250 nM.

For `Cc1cnc(C(=O)NC23CCC(NC(=O)COc4ccc(Cl)c(F)c4)(CC2)CC3O)cn1` (centres unmarked) [Compound 220, N-{4-[2-(4-chloro-3-fluorophenoxy)acetamido]-2-hydroxybicyclo[2.2.2]octan-1-yl}-5-methylpyrazine-2-carboxamide], the EC50 is 50 to 250 nM. Then `O=C(COc1ccc(Cl)c(F)c1)NC12CC(NC(=O)c3cnc(O)[nH]3)(C1)C2` [Compound 812, N-{3-[2-(4-chloro-3-fluorophenoxy)acetamido]bicyclo[1.1.1]pentan-1-yl}-2-hydroxy-1H-imidazole-5-carboxamide], with 1000 to 2000 nM; and `COCc1nc(C(=O)NC23CCC(NC(=O)COc4ccc(Cl)c(F)c4)(CC2)[C@@H](O)C3)cs1` [Compound 619, N-{(3S)-4-[2-(4-chloro-3-fluorophenoxy)acetamido]-3-hydroxybicyclo[2.2.2]octan-1-yl}-2-(methoxymethyl)-1,3-thiazole-4-carboxamide], with less than 50 nM; and `Cc1ccc(C(=O)NC23CC(NC(=O)COc4ccc(Cl)c(F)c4)(C2)C3)nc1` [Compound 146, N-{3-[2-(4-chloro-3-fluorophenoxy)acetamido]bicyclo[1.1.1]pentan-1-yl}-5-methylpyridine-2-carboxamide], with 50 to 250 nM. On to `N#Cc1cncc(NC23CC(NC(=O)COc4ccc(Cl)c(F)c4)(C2)C3)n1` [Compound 745, 2-(4-chloro-3-fluorophenoxy)-N-{3-[(6-cyanopyrazin-2-yl)amino]bicyclo[1.1.1]pentan-1-yl}acetamide], for which the EC50 is greater than 2000 nM. As for `COc1ncc(F)cc1C(=O)NC12CC(NC(=O)COc3ccc(Cl)c(F)c3)(C1)C2` [Compound 863, N-{3-[2-(4-chloro-3-fluorophenoxy)acetamido]bicyclo[1.1.1]pentan-1-yl}-5-fluoro-2-methoxypyridine-3-carboxamide], the EC50 is greater than 2000 nM. Under `COc1nccnc1C(=O)NC12CCC(NC(=O)COc3ccc(Cl)c(F)c3)(CC1)C(O)C2` (centres unmarked) [Compound 274, N-{4-[2-(4-chloro-3-fluorophenoxy)acetamido]-3-hydroxybicyclo[2.2.2]octan-1-yl}-3-methoxypyrazine-2-carboxamide] stands 250 to 1000 nM. In the case of `COc1ncccc1C(=O)NC12CC(NC(=O)COc3ccc(Cl)c(F)c3)(C1)C2` [Compound 809, N-{3-[2-(4-chloro-3-fluorophenoxy)acetamido]bicyclo[1.1.1]pentan-1-yl}-2-methoxypyridine-3-carboxamide], the half-maximal effective concentration (EC50) was greater than 2000 nM. Consider `O=C(COc1ccc(Cl)c(F)c1)NC12CC(NC(=O)c3ccc4ocnc4c3)(C1)C2` [Compound 801, N-{3-[2-(4-chloro-3-fluorophenoxy)acetamido]bicyclo[1.1.1]pentan-1-yl}-1,3-benzoxazole-5-carboxamide], for which the EC50 is greater than 2000 nM. On to `O=C(COc1ccc(Cl)c(F)c1)NC12CC(NC(=O)c3coc4c3C(=O)CCC4)(C1)C2` [Compound 315, N-{3-[2-(4-chloro-3-fluorophenoxy)acetamido]bicyclo[1.1.1]pentan-1-yl}-4-oxo-4,5,6,7-tetrahydro-1-benzofuran-3-carboxamide], for which the EC50 fell in the range of 250 to 1000 nM. Take `CC(C)Oc1ccc(C(=O)NC23CC(NC(=O)COc4ccc(Cl)c(F)c4)(C2)C3)cc1` [Compound 232, N-{3-[2-(4-chloro-3-fluorophenoxy)acetamido]bicyclo[1.1.1]pentan-1-yl}-4-[(propan-2-yl)oxy]benzamide]: the EC50 was in the range of 50 to 250 nM.

Turning to `O=C(COc1ccc(Cl)c(F)c1)NC12CC(NC(=O)c3ncc(C(F)F)s3)(C1)C2` [Compound 425, N-{3-[2-(4-chloro-3-fluorophenoxy)acetamido]bicyclo[1.1.1]pentan-1-yl}-5-(difluoromethyl)-1,3-thiazole-2-carboxamide], the 50% effective concentration (EC50) was 250 to 1000 nM. As to `Cn1cc(-c2cc(C(=O)NC34CCC(NC(=O)COc5ccc(Cl)c(F)c5)(CC3)C(O)C4)on2)cn1` (centres unmarked) [Compound 633, N-{4-[2-(4-chloro-3-fluorophenoxy)acetamido]-3-hydroxybicyclo[2.2.2]octan-1-yl}-3-(1-methyl-1H-pyrazol-4-yl)-1,2-oxazole-5-carboxamide], the concentration giving a half-maximal response (EC50) fell in the range of 50 to 250 nM. Regarding `COc1cccc(C(=O)NC23CC(NC(=O)COc4ccc(Cl)c(F)c4)(C2)C3)c1F` [Compound 519, N-{3-[2-(4-chloro-3-fluorophenoxy)acetamido]bicyclo[1.1.1]pentan-1-yl}-2-fluoro-3-methoxybenzamide], the 50% effective concentration (EC50) lay within 50 to 250 nM.

In the case of `Cc1cc2c(NC34CC(NC(=O)COc5ccc(Cl)c(Cl)c5)(C3)C4)nccn2n1` [Compound 494, 2-(3,4-dichlorophenoxy)-N-{3-[(2-methylpyrazolo[1,5-a]pyrazin-4-yl)amino]bicyclo[1.1.1]pentan-1-yl}acetamide], the EC50 is less than 50 nM. In the case of `O=C(COc1ccc(Cl)c(Cl)c1)NC12CC(NC(=O)c3csc(C(F)(F)F)n3)(C1)C2` [Compound 676, N-{3-[2-(3,4-dichlorophenoxy)acetamido]bicyclo[1.1.1]pentan-1-yl}-2-(trifluoromethyl)-1,3-thiazole-4-carboxamide], the EC50 is less than 50 nM. Under `COCn1ccc(C(=O)NC23CC(NC(=O)COc4ccc(Cl)c(F)c4)(C2)C3)n1` [Compound 260, N-{3-[2-(4-chloro-3-fluorophenoxy)acetamido]bicyclo[1.1.1]pentan-1-yl}-1-(methoxymethyl)-1H-pyrazole-3-carboxamide] stands 250 to 1000 nM; under `Cc1cccc(C(=O)NC23CC(NC(=O)COc4ccc(Cl)c(F)c4)(C2)C3)n1` [Compound 891, N-{3-[2-(4-chloro-3-fluorophenoxy)acetamido]bicyclo[1.1.1]pentan-1-yl}-6-methylpyridine-2-carboxamide], 50 to 250 nM. Then `CC(C)c1cc(C(=O)NC23CC(NC(=O)COc4ccc(Cl)c(F)c4)(C2)C3)no1` [Compound 255, N-{3-[2-(4-chloro-3-fluorophenoxy)acetamido]bicyclo[1.1.1]pentan-1-yl}-5-(propan-2-yl)-1,2-oxazole-3-carboxamide], with 250 to 1000 nM. Under `Cc1nc2cc(C(=O)NC34CC(NC(=O)COc5ccc(Cl)c(F)c5)(C3)C4)ccc2n1C` [Compound 810, N-{3-[2-(4-chloro-3-fluorophenoxy)acetamido]bicyclo[1.1.1]pentan-1-yl}-1,2-dimethyl-1H-benzimidazole-5-carboxamide] stands greater than 2000 nM. `Cn1nccc1C(=O)NC12CC(NC(=O)COc3ccc(Cl)c(F)c3)(C1)C2` [Compound 388, N-{3-[2-(4-chloro-3-fluorophenoxy)acetamido]bicyclo[1.1.1]pentan-1-yl}-1-methyl-1H-pyrazole-5-carboxamide]: the EC50 is 250 to 1000 nM.

As to `O=C(COc1ccc(Cl)c(F)c1)NC12CCC(NC(=O)c3ccc(C(F)(F)F)nc3)(CC1)C(F)C2` (centres unmarked) [Compound 372, N-{4-[2-(4-chloro-3-fluorophenoxy)acetamido]-2-fluorobicyclo[2.2.2]octan-1-yl}-6-(trifluoromethyl)pyridine-3-carboxamide], the half-maximal effective concentration (EC50) lay within 250 to 1000 nM.

For `O=C(COc1ccc(Cl)c(F)c1)NC12CC(NC(=O)c3ccc(C(F)(F)F)cn3)(C1)C2` [Compound 120, N-{3-[2-(4-chloro-3-fluorophenoxy)acetamido]bicyclo[1.1.1]pentan-1-yl}-5-(trifluoromethyl)pyridine-2-carboxamide], the EC50 fell in the range of 50 to 250 nM. With `O=C(COc1ccc(Cl)c(F)c1)NC12CC(Nc3ccn4nccc4n3)(C1)C2` [Compound 609, 2-(4-chloro-3-fluorophenoxy)-N-{3-[(pyrazolo[1,5-a]pyrimidin-5-yl)amino]bicyclo[1.1.1]pentan-1-yl}acetamide], the EC50 is 1000 to 2000 nM. As for `CC(O)c1ncc(C(=O)NC23CC(NC(=O)COc4ccc(Cl)c(F)c4)(C2)C3)s1` (centres unmarked) [Compound 476, N-{3-[2-(4-chloro-3-fluorophenoxy)acetamido]bicyclo[1.1.1]pentan-1-yl}-2-(1-hydroxyethyl)-1,3-thiazole-5-carboxamide], the EC50 is 250 to 1000 nM.

Turning to `CCn1cncc1C(=O)NC12CC(NC(=O)COc3ccc(Cl)c(F)c3)(C1)C2` [Compound 775, N-{3-[2-(4-chloro-3-fluorophenoxy)acetamido]bicyclo[1.1.1]pentan-1-yl}-1-ethyl-1H-imidazole-5-carboxamide], the half-maximal effective concentration (EC50) is greater than 2000 nM. Then `COc1csc(C(=O)NC23CC(NC(=O)COc4ccc(Cl)c(F)c4)(C2)C3)c1` [Compound 857, N-{3-[2-(4-chloro-3-fluorophenoxy)acetamido]bicyclo[1.1.1]pentan-1-yl}-4-methoxythiophene-2-carboxamide], with 50 to 250 nM; and `COc1nc(C)c(C(=O)NC23CC(NC(=O)COc4ccc(Cl)c(F)c4)(C2)C3)s1` [Compound 872, N-{3-[2-(4-chloro-3-fluorophenoxy)acetamido]bicyclo[1.1.1]pentan-1-yl}-2-methoxy-4-methyl-1,3-thiazole-5-carboxamide], with 50 to 250 nM. `O=C(COc1ccc(Cl)c(F)c1)NC12CC(NC(=O)c3cc(-c4ccc(Cl)cc4)no3)(C1)C2` [Compound 392, N-{3-[2-(4-chloro-3-fluorophenoxy)acetamido]bicyclo[1.1.1]pentan-1-yl}-3-(4-chlorophenyl)-1,2-oxazole-5-carboxamide]: the EC50 was less than 50 nM. For the molecule `CCc1cc(C(=O)NC23CCC(NC(=O)COc4ccc(Cl)c(F)c4)(C2)C3)n(C)n1` [Compound 571, N-{4-[2-(4-chloro-3-fluorophenoxy)acetamido]bicyclo[2.1.1]hexan-1-yl}-3-ethyl-1-methyl-1H-pyrazole-5-carboxamide], the EC50 was 250 to 1000 nM.
